According to patent US11364242B2, “Treatment agents for inhibiting HIV and cancer in HIV infected patients” (UNIVERSITY OF MARYLAND, BALTIMORE, priority 2015, dated 2022):
“Also recorded” adds a separate entry of the source.

Tests used:
R5 HIV (JRFL) = assay: Real-time PCR of early reverse transcription products and integrated HIV DNA in infected PBLs; format: cell-based; settings: 72 hours, PBLs from two donors
Protocol: (§1) Activated PBLs were infected with R5 and X4 HIV strains using a MOI of 0.01. Infected cells were cultured in the presence of IL-2 and different concentrations of INK128. Cell aliquots were collected at 16 and 72 hours for analyses of early products of reverse transcription and of integration, respectively, by real time PCR. Detection of early products of reverse transcription was done with primers specific for the R/U5 region (60). For detection of integrated HIV DNA, a real-time nested Alu-HIV PCR assay was used as previously described (61, 62), with the modifications described herein.
DNA was isolated using Miniblood kit (Qiagen™). PCR amplification was performed using Quantitect SYBR Green™ PCR Kit (Qiagen™) in a LightCycler™ (Biorad™). Detection of early products of reverse transcription was done in reactions containing 100 ng of DNA and the primer pair 5′-[…]-3′ (SEQ ID NO. 1) and 5′-[…]-3′ (SEQ ID NO. 2) (R/U5 region) (60). […] Amplified products were analyzed by denaturation/renaturation to verify the specific Tm. The PCR cycle at which the signal entered the exponential range was used for quantification, and HIV copy numbers were corrected for those of α-tubulin. […] As a standard curve for relative quantification of integrated DNA, the Alu-gag was first run using serial dilutions of DNA isolated from HIV infected PBLs (diluted in HIV-negative DNA). […]

X4 HIV (HXB2) = assay: as above; format: cell-based; settings: PBLs from two donors
Protocol: as §1
DNA was isolated using Miniblood kit (Qiagen™). PCR amplification was performed using Quantitect SYBR Green™ PCR Kit (Qiagen™) in a LightCycler™ (Biorad™). Detection of early products of reverse transcription was done in reactions containing 100 ng of DNA and the primer pair 5′-[…]-3′ (SEQ ID NO. 1) and 5′-[…]-3′ (SEQ ID NO. 2) (R/U5 region) (60). […] Amplified products were analyzed by denaturation/renaturation to verify the specific Tm. The PCR cycle at which the signal entered the exponential range was used for quantification, and HIV copy numbers were corrected for those of α-tubulin. […] As a standard curve for relative quantification of integrated DNA, the Alu-gag was first run using serial dilutions of DNA isolated from HIV infected PBLs (diluted in HIV-negative DNA).

[1] = system: chronically HIV-infected U1 cell line; assay: HIV activation in chronically infected U1 cells, p24 ELISA; format: cell-based; settings: INK128 <10 nM, day 3
Protocol: FIG. 5A-5C are bar graphs that illustrate INK128's inhibition of HIV activation in chronically infected cells. Latently HIV infected U1 cells were cultured in the presence of various concentrations of INK128 for 1 hour. Cultures were then untreated (FIG. 5A), or treated with HIV inducers PMA (FIG. 5B) and Tat protein (FIG. 5C). HIV production was measured by p24 ELISA in the culture supernatants on day 3 according to an embodiment.
The effects of INK128 on activation of HIV in the chronically HIV-infected U1 cell line were examined. The U1 cell line carries two copies of the HIV provirus per cell (33). Under basal conditions, U1 cells express low levels of HIV, but HIV expression is enhanced by stimulation with the phorbol ester PMA or by exogenous addition of Tat (34, 35). U1 cells were cultured in the presence of INK128 in the absence and presence of 10 nM PMA or 1 μg/mL Tat. […] As expected, unstimulated U1 cells produced low levels of HIV p24, but production was increased by addition of PMA or Tat.

[2] = system: full-length unspliced HIV mRNA; assay: RT-PCR of unspliced HIV mRNA in U1 cells; format: cell-based; settings: 10 nM PMA, 2 days
Protocol: FIG. 6 is a bar graph that depicts how INK128 inhibits HIV transcription in U1 cells. U1 cells were cultured in the presence of 10 nM PMA and the indicated concentrations of INK128. After 2 days, cells were collected, mRNA isolated, quantified, reverse transcribed and amplified by real time PCR using unspliced HIV cDNA primer pair US.1a/US.2a and housekeeping [beta]-actin primers. For quantification, standard curves for unspliced HIV cDNA and [beta]-actin sequences were generated by performing 10-fold serial dilutions of mRNA isolated from PBLs acutely infected with HIV BaL. PCR amplification was performed using Quantitect® SYBR Green PCR Kit in a LightCycler®. Negative controls consisted of mixture reactions without the reverse transcription step according to an embodiment.
Total cellular RNA was isolated using the Qiagen™ RNA Isolation Kit (Qiagen™) RNA was then treated with DNase I, Amplification Grade (Invitrogen™), and reverse transcribed with SuperScript III First-Strand Synthesis Supermix™ (Invitrogen™) using hexamer primers. An aliquot of the cDNA was used as a template for PCR amplification of full length, unspliced HIV cDNA using primers US.1a and US.2a, and another aliquot for amplification with primer pairs specific for housekeeping [beta]-actin sequences (63).
The effects of INK128 on activation of HIV in the chronically HIV-infected U1 cell line were examined. […]

U1 cells = assay: U1 cell proliferation (optimization experiments); format: cell-based; settings: concentrations higher than 10 nM
CCR5 = assay: Flow cytometry quantitation of surface receptor on PBLs; settings: IL-2, 7 days, three donors
CXCR4 = assay: as above; settings: IL-2, 7 days, three donors
CD4 = assay: as above; settings: IL-2, 7 days, three donors
HIV BaL = HIV BaL infection of NSG mice reconstituted with human PBLs
[3] = Tolerability in huPBL-NSG mice (body weight, wasting, death)

Q: With `CC(C)n1nc(-c2ccc3oc(N)nc3c2)c2c(N)ncnc21` [INK128, 5-(4-amino-1-propan-2-ylpyrazolo[3,4-d]pyrimidin-3-yl)-1,3-benzoxazol-2-amine] as the compound, how does the integrated provirus (R5 HIV (JRFL)) read?
A: decreased levels

Q: What about the R/U5 transcripts (X4 HIV (HXB2); 16 hours) of the same compound?
A: did not decrease

Q: And the integrated provirus (X4 HIV (HXB2); 72 hours)?
A: did not decrease

Q: And the p24 production ([1]; U1 cells treated with 10 nM PMA)?
A: inhibited p24 production

Q: What about the p24 production ([1]; U1 cells treated with 1 μg/mL Tat) of the same compound?
A: inhibited p24 production

Q: And the p24 production ([1]; untreated U1 cells)?
A: inhibited p24 production

Q: What about the “synthesis of full-length unspliced HIV mRNA” value [2] of the same compound?
A: inhibits synthesis

Q: What about the “cell proliferation of U1 cells” value (U1 cells) of the same compound?
A: inhibition of cell proliferation

Q: What about the “percentages of CCR5 expressing cells” value (CCR5; CD4+ and CD8+ T cell subsets) of the same compound?
A: reduced

Q: What about the “CCR5 receptor density (molecules/cell)” value (CCR5) of the same compound?
A: decreased

Q: What about the “CXCR4 levels (percentage or density)” value (CXCR4) of the same compound?
A: did not change

Q: What about the CD4 receptor levels (CD4) of the same compound?
A: did not impact

Q: What about the “mean CD4/CD8 cell ratio” value (HIV BaL; day 14, 1 mg/kg/day i.p.) of the same compound?
A: 0.11

Q: And the “mean CD4/CD8 cell ratio” value (HIV BaL; day 14, 3 mg/kg/day i.p.)?
A: 0.18

Q: And the “mean CD4/CD8 cell ratio” value (HIV BaL; day 14, 5 mg/kg/day i.p.)?
A: 0.76

Q: And the “effect on weight of the animals” value ([3]; 1-5 mg/kg once daily i.p. for 14 days)?
A: no adverse effects; also recorded: without obvious toxicity

Q: What about the “toxicity in pilot experiment” value ([3]; uninfected huPBL-NSG mice, 7 mg/kg daily i.p. for 2 wk) of the same compound?
A: wasting and death
